“And” between values parts separate entries of the source, which are not always exact repeats. Equal entries are not always repeated. Toxic doses and inconclusive results are not listed. The calls were made as follows: active = survival T/C of 150% or more; inactive = T/C below 125% in these data.
Tested on: BDF1 mice, P388 leukemia ip, median survival T/C
Assay: NCI In Vivo Anticancer Drug Screen. Data for tumor model P388 Leukemia (intraperitoneal) in B6D2F1 (BDF1) mice
Settings: endpoint: median survival time, higher = longer survival
Protocol: The antitumor activity of compounds was measured in mice bearing transplantable tumors. Survival or tumor size were measured and the results are expressed as the measurement made in the treated group (T) divided by the measurement made in the vehicle treated control group (C). The tumor model used in this assay is P388 Leukemia (intraperitoneal) in B6D2F1 (BDF1) mice

[1] = dose: 100.0 mg/kg/injection, schedule: Q04DX003 (ip), vehicle: saline with Tween-80
[2] = dose: 50.0 mg/kg/injection, schedule: Q01DX009 (ip), vehicle: Klucel (hydroxypropylcellulose) (HPC)
[3] = dose: 100.0 mg/kg/injection, schedule: Q01DX009 (ip), vehicle: Klucel (hydroxypropylcellulose) (HPC)
[4] = dose: 50.0 mg/kg/injection, schedule: Q01DX009 (ip), vehicle: saline
[5] = dose: 100.0 mg/kg/injection, schedule: Q01DX009 (ip), vehicle: saline
[6] = dose: 100.0 mg/kg/injection, schedule: Q04DX003 (ip), vehicle: saline
[7] = dose: 200.0 mg/kg/injection, schedule: Q01DX009 (ip), vehicle: saline
[8] = dose: 200.0 mg/kg/injection, schedule: Q04DX003 (ip), vehicle: saline
[9] = dose: 400.0 mg/kg/injection, schedule: Q04DX003 (ip), vehicle: saline
[10] = dose: 25.0 mg/kg/injection, schedule: Q01DX009 (ip), vehicle: saline with Tween-80
[11] = dose: 100.0 mg/kg/injection, schedule: Q01DX009 (ip), vehicle: saline with Tween-80
[12] = dose: 12.5 mg/kg/injection, schedule: Q01DX009 (ip), vehicle: saline with Tween-80
[13] = dose: 50.0 mg/kg/injection, schedule: Q01DX009 (ip), vehicle: saline with Tween-80
[14] = dose: 200.0 mg/kg/injection, schedule: Q01DX009 (ip), vehicle: saline with Tween-80
[15] = dose: 12.5 mg/kg/injection, schedule: Q04DX003 (ip), vehicle: saline
[16] = dose: 25.0 mg/kg/injection, schedule: Q04DX003 (ip), vehicle: saline
[17] = dose: 50.0 mg/kg/injection, schedule: Q04DX003 (ip), vehicle: saline

Measured: T/C

C[n+]1c(-c2ccccc2)c2cc(N)ccc2c2ccccc21
inactive: dose: 3.1 mg/kg/injection, schedule: Q04DX003 (ip), vehicle: saline 110 % of control | dose: 10.0 mg/kg/injection, schedule: Q04DX003 (ip), vehicle: saline 122 % of control
active: dose: 6.6 mg/kg/injection, schedule: Q01DX009 (ip), vehicle: saline 153 % of control | dose: 10.0 mg/kg/injection, schedule: Q01DX009 (ip), vehicle: saline 165 % of control and 181 % of control

C=CCc1ccccc1C=O
inactive: [1] 97 % of control | dose: 200.0 mg/kg/injection, schedule: Q04DX003 (ip), vehicle: saline with Tween-80 95 % of control | dose: 400.0 mg/kg/injection, schedule: Q04DX003 (ip), vehicle: saline with Tween-80 97 % of control

COc1ccc(OC)c(/C=C/[N+](=O)[O-])c1
inactive: dose: 12.5 mg/kg/injection, schedule: Q01DX009 (ip), vehicle: Klucel (hydroxypropylcellulose) (HPC) 108 % of control | dose: 25.0 mg/kg/injection, schedule: Q01DX009 (ip), vehicle: Klucel (hydroxypropylcellulose) (HPC) 113 % of control and 120 % of control | [2] 113 % of control | [3] 116 % of control

CN1c2c(nc(N)[nH]c2=O)NCC1CCNc1ccc(C(=O)NC(CCC(=O)O)C(=O)O)cc1 (stereo unspecified)
inactive: dose: 6.25 mg/kg/injection, schedule: Q01DX009 (ip), vehicle: other 100 % of control | dose: 12.5 mg/kg/injection, schedule: Q01DX009 (ip), vehicle: other 100 % of control | dose: 25.0 mg/kg/injection, schedule: Q01DX009 (ip), vehicle: other 109 % of control | dose: 50.0 mg/kg/injection, schedule: Q01DX009 (ip), vehicle: other 109 % of control | [4] 104 % of control | [5] 112 % of control | [6] 109 % of control | dose: 200.0 mg/kg/injection, schedule: Q01DX009 (ip), vehicle: other 118 % of control | [7] 122 % of control | [8] 109 % of control | [9] 90 % of control

Cc1ccc(S(=O)(=O)c2ccc(Sc3cccc[n+]3[O-])c3nonc23)cc1
inactive: [10] 119 % of control | [11] 111 % of control

O=C(Nc1ccc(C2=NCCN2)cc1)c1ccc(C(=O)Nc2ccc(C3=NCCN3)cc2)c(Cl)c1
active: dose: 1.56 mg/kg/injection, schedule: Q01DX009 (ip), vehicle: saline with Tween-80 152 % of control | dose: 3.13 mg/kg/injection, schedule: Q01DX009 (ip), vehicle: saline with Tween-80 161 % of control | dose: 6.25 mg/kg/injection, schedule: Q01DX009 (ip), vehicle: saline with Tween-80 189 % of control and 204 % of control | dose: 8.0 mg/kg/injection, schedule: Q01DX010 (ip), vehicle: water 150 % of control and 160 % of control | dose: 10.0 mg/kg/injection, schedule: Q01DX010 (ip), vehicle: water 154 % of control and 195 % of control | dose: 12.0 mg/kg/injection, schedule: Q01DX010 (ip), vehicle: water 160 % of control and 170 % of control | [12] 250 % of control and 200 % of control and 211 % of control
270 % of control and 108 % of control: [10]

Cc1ccc(C)c2c1CCCC2=O
inactive: [13] 86 % of control | [11] 90 % of control | [14] 100 % of control | dose: 400.0 mg/kg/injection, schedule: Q01DX009 (ip), vehicle: saline with Tween-80 86 % of control

CC(=O)OC1C=COC(C)C1OC(C)=O (stereo unspecified)
inactive: [4] 98 % of control | [5] 114 % of control | [6] 100 % of control | [8] 99 % of control | [9] 100 % of control

CCCCCCCCCCC(O)CCCCCCCCCC
inactive: [13] 100 % of control | [11] 95 % of control | [14] 90 % of control

COC(=O)/C(C=Nc1ccccc1)=C(/C)O
inactive: [2] 112 % of control | [3] 103 % of control | dose: 200.0 mg/kg/injection, schedule: Q01DX009 (ip), vehicle: Klucel (hydroxypropylcellulose) (HPC) 108 % of control

Cc1cc(-c2ccccc2)[n+](C)n1C
inactive: [12] 98 % of control | [10] 118 % of control

CC[S+](CC)CC
inactive: [15] 109 % of control | dose: 25.0 mg/kg/injection, schedule: Q01DX001 (ip), vehicle: saline 100 % of control | [16] 109 % of control | dose: 50.0 mg/kg/injection, schedule: Q01DX001 (ip), vehicle: saline 100 % of control | [17] 109 % of control | dose: 100.0 mg/kg/injection, schedule: Q01DX001 (ip), vehicle: saline 100 % of control | [6] 100 % of control

c1ccc(Nc2ncc3cnccn23)cc1
inactive: [15] 95 % of control | [16] 105 % of control | [17] 92 % of control | [6] 103 % of control | [8] 97 % of control and 101 % of control | dose: 300.0 mg/kg/injection, schedule: Q04DX003 (ip), vehicle: saline 115 % of control

Cc1cc(N(C)C)c2ccc3c(ccc4c(N(C)C)cc(C)nc43)c2n1
inactive: [13] 121 % of control | [11] 123 % of control

c1ccc(CCN2COc3c(ccc4cccnc34)C2)cc1
inactive: [1] 95 % of control

c1ccc(CSC2=NCCS2)cc1
inactive: [5] 113 % of control | [7] 104 % of control | dose: 400.0 mg/kg/injection, schedule: Q01DX009 (ip), vehicle: saline 113 % of control

CN(C)C(=S)NN
inactive: dose: 0.25 mg/kg/injection, schedule: Q01DX009 (ip), vehicle: saline with Tween-80 90 % of control | dose: 0.5 mg/kg/injection, schedule: Q01DX009 (ip), vehicle: saline with Tween-80 90 % of control | dose: 0.78 mg/kg/injection, schedule: Q04DX003 (ip), vehicle: saline with Tween-80 100 % of control | dose: 1.0 mg/kg/injection, schedule: Q01DX009 (ip), vehicle: saline with Tween-80 95 % of control | dose: 1.56 mg/kg/injection, schedule: Q04DX003 (ip), vehicle: saline with Tween-80 105 % of control | dose: 3.12 mg/kg/injection, schedule: Q04DX003 (ip), vehicle: saline with Tween-80 95 % of control and 105 % of control

COC(=O)C(C)NC1=C(Cl)C(=O)C(NC(C)C(=O)OC)=C(Cl)C1=O (stereo unspecified)
inactive: dose: 50.0 mg/kg/injection, schedule: Q01DX009 (ip), vehicle: saline + Tween-80 + alcohol 98 % of control | dose: 100.0 mg/kg/injection, schedule: Q01DX009 (ip), vehicle: saline + Tween-80 + alcohol 97 % of control | dose: 200.0 mg/kg/injection, schedule: Q01DX009 (ip), vehicle: saline + Tween-80 + alcohol 101 % of control

Cn1c(O)c(N=NC(N)=S)c2ccccc21
inactive: dose: 10.0 mg/kg/injection, schedule: Q01DX009 (ip), vehicle: saline with Tween-80 102 % of control | dose: 20.0 mg/kg/injection, schedule: Q01DX009 (ip), vehicle: saline with Tween-80 98 % of control | dose: 40.0 mg/kg/injection, schedule: Q01DX009 (ip), vehicle: saline with Tween-80 115 % of control | [13] 90 % of control | dose: 80.0 mg/kg/injection, schedule: Q01DX009 (ip), vehicle: saline with Tween-80 120 % of control | [11] 90 % of control | dose: 160.0 mg/kg/injection, schedule: Q01DX009 (ip), vehicle: saline with Tween-80 113 % of control | [14] 90 % of control

CCN(CC)c1ccc(N=Cc2ccccc2S(=O)(=O)O)cc1
inactive: dose: 6.25 mg/kg/injection, schedule: Q01DX009 (ip), vehicle: saline 100 % of control | dose: 6.25 mg/kg/injection, schedule: Q04DX003 (ip), vehicle: saline 104 % of control | dose: 12.5 mg/kg/injection, schedule: Q01DX009 (ip), vehicle: saline 100 % of control | [15] 109 % of control | dose: 25.0 mg/kg/injection, schedule: Q01DX009 (ip), vehicle: saline 100 % of control | [16] 104 % of control

S=c1nc[nH]c2c1ccc1[nH]cnc12
inactive: dose: 12.5 mg/kg/injection, schedule: Q01DX005 (ip), vehicle: saline with Tween-80 99 % of control | dose: 25.0 mg/kg/injection, schedule: Q01DX005 (ip), vehicle: saline with Tween-80 100 % of control | dose: 50.0 mg/kg/injection, schedule: Q01DX005 (ip), vehicle: saline with Tween-80 99 % of control and 107 % of control | dose: 100.0 mg/kg/injection, schedule: Q01DX005 (ip), vehicle: saline with Tween-80 90 % of control | dose: 200.0 mg/kg/injection, schedule: Q01DX005 (ip), vehicle: saline with Tween-80 104 % of control

Source: PubChem BioAssay AID328 (DTP/NCI, 2004)
